Measurements reported in patent EP1153612A1, “ANTICANCER AGENT POTENTIATORS” (Tsuruo, Takashi, priority 1999, dated 2000).

Experiments:
[1] = system: topoisomerase IIα; assay: Amount of expression of topoisomerase IIα in whole cell extract by western blotting; assay type: cell-based, human; conditions: glucose starvation condition 14 hours; PSI, MG115, MG132 5 µM; lactacystin 10 µM; E64, ZLLal 50 µM; FIG. 5(a)-(c)
Excerpt: Topoisomerase II inhibiting anticancer drug stabilizes a complex (cleavable complex) consisting of the DNA and topoisomerase IIα occurring in a catalytic reaction process of topoisomerase IIα to cause DNA damage. Therefore, cell-killing effect of the topoisomerase II-inhibiting anticancer drug depends on the amount of intracellular expression of topoisomerase IIα essential for formation of the cleavable complex. Then, the amount of expression of topoisomerase IIα in the cultured cancer cell under the glucose starvation and hypoxia environment that are found in the solid cancer and the effect of the proteasome inhibiting agent to the amount of expression were examined.
The culture condition of cells is same as that described in Example 1 including the M phase synchronous culture method and culture under the glucose starvation condition. Culture under hypoxia condition, that is found in the solid cancer, similar to glucose starvation was carried out using the culture medium (that prepared by adding 5% FBS to RPMI1640 culture medium) under the ordinary condition in a Gaspack 100 anaerobic system (Becton Dickinson made). Culture under the glucose starvation condition and hypoxia condition was carried out for 14 hours .
With the purpose to prepare a whole cell extract solution, cells culture under the above described condition were washed with an ice-cooled PBS twice and then, cells were removed from the culture dish by using a cell scraper (Sumitomo Bakelite made) for collection. Cells collected were precipitated by centrifugation and then, dissolved in an SDS sample buffer to collect as the extract solution from all cells. For reference, the composition of the SDS sample buffer was 10% v/v, glycerol, 5% 2-mercaptoethanol, 2% SDS (sodium lauryl sulfate), and 62.5 mM tris-hydrochloric acid (pH 6.8).
The amount of topoisomerase IIα in the extract solution from all cells was measured by the western blotting method. The extract solution from all cells containing a total protein quantity of 30 µg was put on an SDS polyacrylamide gel (4-20 Multigel: Daiichi Pure Chemicals K.K. made) and subjected to electrophoresis in an electrophoresis buffer (25 mM tris, 192 mM glycine, and 0.1% SDS) in a 40 mA constant current for 1 hour. Subsequently, blotting was carried out in 4°C blotting buffer (25 mM tris, 192 mM glycine, and 20% methanol) in a 50 V constant voltage for 12 hours to transfer a protein separated in the SDS polyacrylamide gel to a nitrocellulose membrane. This nitrocellulose membrane was soaked in a blocking buffer (0.1% Tween 20, 4% skim milk-added PBS) for 1 hour to carry out blocking. The nitrocellulose membrane blocked was soaked in a solution, that was prepared by adding anti-topoisomerase IIα antibody (Cambridge Research Biochemicals Corp. made) of the final concentration 1 µg/ml as the primary antibody to the blocking buffer solution, for 1 hour. The nitrocellulose membrane was washed with the blocking buffer three times (5 minutes once), and then, soaked in the solution, in which a 1/1000 volume of an antimouse antibody (Amersham Pharmacia Biotech made) labeled with horse radish peroxidase as a secondary antibody had been added to the blocking buffer, for 1 hour. The nitrocellulose membrane was washed with the blocking buffer three times (5 minutes once), and then, washed with the PBS, to which 0.1% Tween 20 was added, three times (5 minutes once). The nitrocellulose membrane after completion of antibody reaction and washing was treated with the ECL reagent (Amersham Pharmacia Biotech made) after a handling manual and a topoisomerase IIα-specific signal was detected on an X-OMAT™AR film (Kodakmade). For reference, steps after blotting was carried out in a room temperature. […]
The cell culture condition for both M phase-synchronized culture method and culture under the glucose starvation condition was as described in Example 1. […]

[2] = system: human colon cancer cell HT29; assay: Anticancer therapy in human cancer cell-transplanted nude mouse model (size of tumor lump); assay type: in vivo, nude mouse BALB/cAnNCrj-nu/nu; conditions: Example 5; intraperitoneally three times every 4 days; etoposide 33 mg/kg, lactacystin 40 mg/kg; in combined use lactacystin 5 hours before etoposide; FIG. 11
Excerpt: A human colon cancer cell HT29 was transplanted subcutaneously to a nude mouse to examine a therapeutic effect of combined use of lactacystin, the proteasome inhibiting agent, with etoposide, the anticancer drug targeting topoisomerase II.
As an experimental animal, the nude mouse BALB/cAnNCrj-nu/nu of 8-week old female (Charles River Laboratories product) was used. In order to form a tumor lump in the nude mouse, 1×10^7 HT29 cells was subcutaneously transplanted. After 8 to 10 days of transplanting, the tumor lump of HT29 cells grew to […] and at this point, the therapy was started. […]
The therapy was conducted by dividing the HT29 tumor-transplanted mice into 4 groups to assign 4 animals to 1 group as follows by administering intraperitoneally three times every 4 days: (1) control group untreated with saline, (2) etoposide 33 mg/kg, (3) lactacystin 40 mg/kg, (4) lactacystin 40 mg/kg and etoposide 33 mg/kg. […] Since start of the therapy, a size of the tumor lump was measured to measure effect of the therapy by administration of drugs once every 4 days. […]
The effect of therapy by simultaneous administration of the proteasome inhibiting agent, lactacystin, and the topoisomerase II-targeting anticancer, doxorubicin was examined. […] After start of treatment, once every 4 to 5 days, the size of the tumor lump was measured to measure the effect of treatment by drug administration.

In the case of `CC(=O)N[C@@H](CSC(=O)[C@]1([C@@H](O)C(C)C)NC(=O)[C@H](C)[C@@H]1O)C(=O)O` [lactacystin], the “expressed amount of topoisomerase IIα” value [1] is reported as “similarly inhibits drop of expression of topoisomerase IIα” and the “suppression of tumor proliferation (size of the tumor lump)” value [2] is reported as “less suppression of tumor proliferation”.
